Experimental data as given in PMC3511469, “Five Different Piscidins from Nile Tilapia, Oreochromis niloticus: Analysis of Their Expressions and Biological Functions” (PLoS ONE, 2012).
Where no end group is shown, it is not given here.

Columns and labels:
[1] = test system: V. vulnificus 204; assay type: cell-based, Vibrio vulnificus; conditions: 204, pH 7.4
Protocol: (§1) Escherichia coli for transformation was cultured in LB medium at 37°C.
(§2) Peptides were synthesized by GL Biochem (Shanghai, China) using a solid-phase procedure of Fmoc chemistry. Crude peptides were extracted, lyophilized, and purified by reverse-phase high-performance liquid chromatography (HPLC). The molecular masses and purities of the purified peptides were respectively verified by mass spectroscopy and HPLC. Synthetic peptides at >95% purity were reconstituted in phosphate-buffered saline (PBS; pH 7.4) for the experiments. The TP1 sequence was FDWDSVLKGVEGFVRGYF, the TP2 sequence was […], the TP3 sequence was […], the TP4 sequence was […], the TP5 sequence was […], the epinecidin-1 (Epi-1) sequence was […], and the cod pis 1 sequence was […]. C terminals of all synthetic peptides were amidated. The minimal inhibitory concentration (MIC) was measured for each strain of microorganism listed above. The MICs of the peptides were determined by a broth microdilution analysis based on an online method (http://cmdr.ubc.ca/bobh/methods/MODIFIEDMIC.html; Hancock Laboratory Methods. Department of Microbiology and Immunology, University of British Columbia, British Columbia, Canada) without modification.

[2] = test system: A. hydrophila BCRC 13018; assay type: cell-based, Aeromonas hydrophila; conditions: BCRC 13018, pH 7.4
Protocol: as §1, §2

[3] = test system: V. alginolyticus; assay type: cell-based, Vibrio alginolyticus; conditions: pH 7.4
Protocol: as §1, §2

[4] = test system: P. aeruginosa ATCC 19660; assay type: cell-based, Pseudomonas aeruginosa; conditions: ATCC 19660, pH 7.4
Protocol: as §1, §2

[5] = test system: S. agalactiae 819; assay type: cell-based, Streptococcus agalactiae; conditions: 819, pH 7.4
Protocol: as §1, §2

[6] = test system: S. agalactiae BCRC 10787; assay type: cell-based, Streptococcus agalactiae; conditions: BCRC 10787, pH 7.4
Protocol: as §1, §2

[7] = test system: E. faecalis BCRC 10066; assay type: cell-based, Enterococcus faecalis; conditions: BCRC 10066, pH 7.4
Protocol: as §1, §2

[8] = test system: human erythrocytes; assay type: cell-based
Protocol: (§3) The hemolytic activities of Nile tilapia piscidins were determined according to a previous method, [34]. In brief, erythrocytes of tilapia (2×10^7 cells) were washed three times with 0.9% NaCl and incubated with various concentrations of the peptides for 3 h at 37°C. After centrifugation, the absorbance at 545 nm of the suspension was determined. Erythrocytes in PBS (Ablank) and 0.1% Triton X-100 (Atriton) respectively served as the negative and positive controls. The percentage of hemolysis was calculated according to the equation described in a previous publication. The hemolysis assay was performed in triplicate.
Supplementary file pone.0050263.s004.tif: Figure S4 In vitro assays used HeLa (ATCC: CCL-2™), RAW264.7 (ATCC: TIB-71™), and MRC-5 (ATCC: CCL-171™) cells. Tumor cells (HeLa and RAW264.7 cells) and normal cells (MRC-5) were treated with different doses of piscidin peptides (TP1∼5) for 24 h, followed by an MTS assay. Each concentration was repeated in eight wells for three independent experiments. Results are expressed as a percentage of the survival rate of viable cells. Piscidin treatment affected cell viability in a dose-dependent manner. There were significant differences between treatment groups for TP4 and TP3. Data are from three separate experiments. Hemolytic activities of TP1∼5 against human erythrocytes. […]

[9] = test system: methicillin-resistant Staphylococcus aureus (MRSA); conditions: in vitro assay; synthetic peptide; cited from earlier work
Excerpt: Piscidins are cationic AMPs expressed by fish mast cells. […] The piscidin family includes pleurocidin, moronecidin, chrysophsin, dicentracin, epinecidin-1, and myxinidin. Piscidins have a widespread presence in higher teleosts, so far including 11 species in eight families of the Moronidae, Sciaenidae, Sparidae, Latidae, Siganidae, Belontida ...

[10] = test system: erythrocytes of tilapia; assay type: cell-based
Protocol: as §3

Substance | MIC [1] | MIC [2] | MIC [3] | MIC [4] | MIC [5] | MIC [6] | MIC [7] | hemolytic activity toward human erythrocytes [8] | MIC [9] | concentration at which the hemolytic effect began [10] | concentration at which the hemolytic effect began [8]
FIHHIIGGLFSVGKHIHSLIHGH-NH2 [TP3] | 2.44 µg/mL | >19.55 µg/mL | 2.44 µg/mL | >19.55 µg/mL | 9.78 µg/mL | 0.61 µg/mL | 19.55 µg/mL | low hemolytic activity |  |  | 
FFHHIFRGIVHVGKTIHRLVTG [piscidin 1, synthetic piscidin 1, literature values] |  |  |  |  |  |  |  |  | 3.1 µM |  | 
FDWDSVLKGVEGFVRGYF-NH2 [TP1] | >23.57 µg/mL | >23.57 µg/mL | >23.57 µg/mL | >23.57 µg/mL | >23.57 µg/mL | >23.57 µg/mL | >23.57 µg/mL |  |  |  | 
QLQGKQVSGEVVQKVLQELIQSVAKP-NH2 [TP5] | >17.64 µg/mL | >17.64 µg/mL | >17.64 µg/mL | >17.64 µg/mL | >17.64 µg/mL | >17.64 µg/mL | >17.64 µg/mL |  |  |  | 
GFIFHIIKGLFHAGKMIHGLV-NH2 [Epi-1, epinecidin-1, reference compound] | 0.67 µg/mL | >21.41 µg/mL | 2.68 µg/mL | 10.70 µg/mL | >21.41 µg/mL | 0.33 µg/mL | >21.41 µg/mL |  |  |  | 
FIHHIIGWISHGVRAIHRAIHG-NH2 [cod Pis 1, reference compound] | 0.62 µg/mL | 19.78 µg/mL | 1.24 µg/mL | >19.78 µg/mL | 9.89 µg/mL | 0.31 µg/mL | 9.89 µg/mL |  |  |  | 
FIHHIIGGLFSAGKAIHRLIRRRRR-NH2 [TP4] | 0.03 µg/mL | 1.05 µg/mL | 0.03 µg/mL | 0.52 µg/mL | 2.10 µg/mL | 0.13 µg/mL | 8.39 µg/mL |  |  | 400 to 800 ng/mL | 400 to 800 ng/mL
GECIWDAIFHGAKHFLHRLVNP-NH2 [TP2] | >19.52 µg/mL | >19.52 µg/mL | >19.52 µg/mL | >19.52 µg/mL | >19.52 µg/mL | >19.52 µg/mL | >19.52 µg/mL |  |  |  | 
